Entries after “also recorded” stand apart in the source; their conditions may differ.

Experimental findings from patent US20260183306A1, “Methods for Treating Respiratory Diseases Characterized by Mucus Hypersecretion” (The Board of Trustees of the Leland Stanford Junior …, priority 2022, published 2026) are described below.

The subject of data set [1] is primary nasal epithelial cells from two CF donors (F508del homozygotes). Description: Ciliary beat frequency (CBF) in CF nasal epithelial cultures, MK-0752 and Elexacaftor. Format: cell-based, human. Here is the method:
Primary nasal epithelial cells from two CF donors (F508del homozygotes) were grown in filter inserts as in previous experiments to full differentiation. We evaluated whether lower doses of both MK-0752 and Elexacftor than doses used in the previous experiments could elicit a positive response in CBF as evidence for synergy between the two drugs. During differentiation, cultures received treatment with vehicle control or the GSI MK-0752 at 125 nM, or triple combination modulator combination with Elexacaftor at 100 nM, or both treatments combined. Once cells reached maturity, the apical surface was washed gently with PBS and then placed on an inverted microscope on a heated stage at 37° C. High speed video recording at 200× of the ciliated surface was performed to estimate the CBF in several regions. Average CBF in Hz for each condition are represented by the bars in FIG. 30.

Data set [2] can be described thus: Body weight and tolerability in GSI treated mice (surrogate of GI toxicity). The data set is classed as in vivo.
Method: In the second experiment, vehicle and semagacestat were administered once daily for 5 consecutive days per week for three weeks, with a semagacestat dose of 1 mg/kg. […] As a surrogate measure of GI toxicity, we monitored body weight throughout the experiment. Body weight was measured on Days 1, 9, 24 and 30, and mice were sacrificed on day 31.
Mouse husbandry and GSI treatment in mice. […] 10-40 week age-matched male and female Foxj1/EGFP mice were treated with LY450139 or vehicle control by intraperitoneal (IF) administration. In the first experiment, 0.1 mg/kg, or 1 mg/kg LY450139, 10 mg/kg DAPT or saline vehicle was administered twice daily for three consecutive days, then the mice were sacrificed on day 7. In the second experiment, 1 mg/kg LY450139 or saline vehicle was administered once daily for five consecutive days per week for three weeks, then the mice were sacrificed on day 30. Body weight was monitored as a surrogate measure of GI toxicity.
The subject of data set [3] is HNEC cultures treated with IL-13. Description: IL-13 induced chronic inflammation / mucous metaplasia model in ALI HNEC cultures. The data set is classed as cell-based, human. The note with it: for percentage of MCCs after IL-13 remodeling / percentage of mucin positive secretory (mucous) cells after IL-13 remodeling: IL-13 ALI+7 to 14, then DAFT (1 um) or semagacestat (125 nm) ALI+14 to 21; for percentage of MCCs in controls without IL-13: no IL-13, DAFT (1 um) or semagacestat (125 nm) days 14-21. Here is the method: Administration of IL-13 to ALI cultures induces goblet cell hyperplasia and is a useful model of chronic inflammation. ALI HNEC cultures were prepared as described in Vladar et al. ALI cultures were treated with and without administration of I1-13 on days 7−14. DAFT (1 um), semagacestat (125 nm) or vehicle control were administered on days 14-21. PFA-fixed cultures were stained for Muc5AC (red; mucin producing secretory cells), Acetylated tubulin (green; MCCs) and E-Cadherin (blue to reveal cell boundaries).
HNEC cultures from a CF patient were treated with IL-13 from ALI+7 to 14 to induce inflammation. […] IL-13 treatment increases the percentage of mucin positive secretory cells and decreases the percentage of MCCs.
To test whether GSI treatment has the ability to restore multiciliated cells in remodeled epithelia with fewer than normal multiciliated cells, healthy donor HNECs were treated with the IL-13 pro-inflammatory cytokine to model mucous metaplasia (7,24). IL-13 treatment from ALI+7 to 14d of culture led to the formation of excess mucus secretory cells, identified by MUCSAC labeling, at the expense of multiciliated cells (FIG. 38A). At ALI+14d, the cytokine was withdrawn, and cultures were treated for one week with LY450139, DAPT or DMSO control.
(§1) Primary human nasal epithelial cell (HNEC) cultures. […] Primary air-liquid interface (ALI) culture of nasal epithelial cells from passage 0 (P0) or P1 basal stem cells was carried out as previously described (24,30). Briefly, cells are removed from cytobrushes with gentle enzymatic digestion. P0 HNEC cultures are initiated by seeding freshly isolated cells onto Collagen I coated Transwell filters. P1 HNEC cultures are initiated from basal cells that were first expanded on Collagen I coated plastic dishes in proliferation medium supplemented with Y-27632 (ROCK inhibitor, 10 μM), DMH-1 (BMP inhibitor, 1 μM), A-83-01, (TGF-β inhibitor, 1 μM), and CHIR99021 (WNT agonist, 1 μM)(42), all from Selleckchem. HNECs seeded onto Transwells are initially cultured submerged in proliferation medium until confluency, then lifted to ALI (considered as ALI+0d of culture) by supplying differentiation medium only from the bottom compartment. HNECs are considered mature at ALI+21d of culture. Healthy and CF HNECs used in the study were cultured in homemade media (24). CF HNECs used for the Ussing chamber measurements only were cultured in Pneumacult Ex+(proliferation) and Pneumacult ALI (differentiation) media (Stemcell). […] Healthy HNECs were treated with 10 ng/ml recombinant human IL-13 (RnD Systems).

Data set [4] deals with primary cystic fibrosis airway epithelial cells. Description: MCC formation in cystic fibrosis airway epithelial cultures. The data set is classed as cell-based, human. The note with it: for MCC differentiation with semagacestat in combination with Lumacaftor (and Ivacaftor): semagacestat ALI+0-21d, Lumacaftor ALI+19-21d, Ivacaftor ten minutes, wild-type and CF cultures; for MCC/total cell ratio in CF patient-derived cultures: treated during differentiation only (ALI+0 to +21d), homemade medium; for multiciliated cell formation in mature CF cultures: mature (ALI+30d) CF cultures treated one week (ALI+30 to +37d). Here is the method:
To assess the effects of combining semagacestat and CFTR modulator treatment, wild-type control and CF (F508AIF5080) HNEC cultures were grown to maturity with or without semagacestat from ALI+0-21d and cultures were treated with or without Lumacaftor (VX-809) from ALI+19-21d and Ivacaftor (VX-770) for ten minutes prior to fixation. PFA fixed membranes were then stained for Acetylated tubulin (green; MCCs) and E-Cadherin (red).
Primary healthy and cystic fibrosis airway epithelial cells were treated with semagacestat (LY45139) during differentiation only (ALI+0 to +21 d) and labeled at ALI+21d with anti-acetylated α-Tubulin (green) and ECAD (red) antibodies. […] Restoration of a healthy MCC/total cell ratio is expected to improve mucociliary clearance.
Mature (ALI+30d) primary cystic fibrosis human airway epithelial cells were treated with DAPT for one week (ALI+30 to +37d), then labeled with anti-acetylated α-Tubulin (green) and ECAD (red) antibodies.
As observed in healthy HNECs, GSI-induced multiciliated cells in CF HNECs are structurally normal, and GSI treatment in both differentiating and mature CF cultures can mitigate multiciliated cell loss (FIG. 41, 43A-B).
as §1

The subject of data set [5] is healthy and CF primary human airway epithelial cultures. Briefly: SEM of cilia structure in healthy and CF primary human airway epithelial cultures. The data set is classed as cell-based. How it is done: Wholemount immunofluorescence and scanning electron microscopy of HNEC cultures. For wholemount immunofluorescence, HBECs were fixed in −20° C. methanol or 4% paraformaldehyde for 10 min as previously described (43). Transwell filters were cut out of the plastic supports and placed in a humidity chamber for staining. Samples were blocked in 10% normal horse serum and 0.1% Triton X-100 in PBS and incubated with primary antibodies for 1-2 h, then with Alexa dye conjugated secondary antibodies (Thermo Fisher) for 30 min at room temperature. Filters were mounted in Mowiol mounting medium containing 2% N-propyl gallate (Sigma). Samples were imaged with a Leica SP8 confocal microscope. For antibodies and fixation conditions, see Table 2. For SEM, Transwell filters were fixed in 2% glutaraldehyde, 4% paraformaldehyde in 0.1 M NaCacodylate buffer, pH 7.4 at 4° C. overnight. Samples were osmicated, dehydrated, dried with a Tousimis Autosamdri-815 critical point dryer. Samples were mounted luminal side up, sputter coated with 100 Å layer of Au/Pd. Images were acquired with a Hitachi S-3400N VP-SEM microscope operated at 10−15 kV, with a working distance of 7−10 mm and using secondary electron detection.

As to `O=C(O)CC[C@H]1CC[C@@](c2cc(F)ccc2F)(S(=O)(=O)c2ccc(Cl)cc2)CC1` [MK-0752], the “increase in CBF expected by the simple addition of the independent effects” value in data set [1] (MK-0752 125 nM plus triple combination with Elexacaftor 100 nM) came out at 28%. In addition, the “increase in CBF by the combined treatments versus either drug alone” value in data set [1] (MK-0752 125 nM plus triple combination with Elexacaftor 100 nM, p<0.005) is on record as “larger than with either drug alone”. The “increase in CBF by the combined treatments” value in data set [1] (MK-0752 125 nM plus triple combination with Elexacaftor 100 nM, p=0.049 vs expected) is recorded as 36%. Further, the “ciliary beat frequency (CBF) versus control” value in data set [1] (MK-0752 at 125 nM during differentiation, p<0.001 vs control) is “significant effect in increasing the CBF”.

`CC(C)[C@H](O)C(=O)N[C@@H](C)C(=O)N[C@@H]1C(=O)N(C)CCc2ccccc21` [semagacestat, (2S)-2-hydroxy-3-methyl-N-[(1 S)-1-methyl-2-oxo-2-[[(1 S)-2,3,4,5-tetrahydro-3-methyl-2-oxo-1H-3-benzazepin-1-yl]amino]ethyl]-butamide]: in data set [2] (1 mg/kg IP once daily 5 days per week for three weeks, days 9, 24 and 30), the “body weight versus vehicle controls” value is “no significant difference”. Besides, the “mortality, ill effects, adverse events, tolerability” value in data set [2] (1 mg/kg IP once daily 5 days per week for three weeks, listed as LY450139) was “well tolerated”. The apparent toxicity entry in data set [2] (1 mg/kg administered for three days) is given as “without any apparent toxicity”. The “percentage of MCCs after IL-13 remodeling” value in data set [3] is recorded as “increasing the percentage of MCCs”; in data set [3] (listed as LY450139), “significantly increased their proportion of multiciliated cell numbers; also recorded: induced multiciliated cell formation to levels comparable to healthy epithelia”. The entries for the “percentage of mucin positive secretory (mucous) cells after IL-13 remodeling” value in data set [3] and in data set [3] (listed as LY450139) were “decreasing the percentage of mucin positive secretory cells” and “reduction in the proportion of mucous cells”, respectively. Also, the “percentage of MCCs in controls without IL-13” value in data set [3] was “increase the percentage off MCCs in controls; also recorded: increase the percentage of MCCs in controls”. Moreover, the entries for the “MCC differentiation with semagacestat in combination with Lumacaftor (and Ivacaftor)” value in data set [4] and in data set [4] (listed as Semagacestat) were “as well as or better than cultures treated with semagacestat alone; also recorded: no significant decrease in semagacestat-induced MCC response was seen” and “effective at increasing the percentage of MCCs in the presence of Lumacaftor”, respectively. In data set [4] (semagacestat alone, not shown), the “MCC response of CF patients not eligible for Trikafta” value was “respond to semagacestat alone similarly to those on corrector therapy”. Also, the “MCC/total cell ratio in CF patient-derived cultures” value is “effective in increasing MCC/total cell ratio” in data set [4] (listed as LY45139) and “similarly normalized proportion of multiciliated cells; also recorded: restores multiciliated cell numbers in CF cultures; also recorded: increases multiciliated cell number in CF cultures” in data set [4] (listed as LY450139).

Consider `C[C@H](NC(=O)Cc1cc(F)cc(F)c1)C(=O)NC(C(=O)OC(C)(C)C)c1ccccc1` (some centres unmarked) [DAPT], for which the “percentage of MCCs after IL-13 remodeling” value in data set [3] was “significantly increased their proportion of multiciliated cell numbers; also recorded: increasing the percentage of MCCs”; in data set [3] (listed as DAFT), “increasing the percentage of MCCs; also recorded: induced multiciliated cell formation to levels comparable to healthy epithelia”. For the same compound, the “percentage of mucin positive secretory (mucous) cells after IL-13 remodeling” value is on record as “reduction in the proportion of mucous cells; also recorded: decreasing the percentage of mucin positive secretory cells” in data set [3] and “decreasing the percentage of mucin positive secretory cells” in data set [3] (listed as DAFT). In addition, the “percentage of MCCs in controls without IL-13” value in data set [3] was “increase the percentage of MCCs in controls”; in data set [3] (listed as DAFT) it was “increase the percentage off MCCs in controls”. Also, the “multiciliated cell formation in mature CF cultures” value in data set [4] is “induces the formation of additional multiciliated cells in mature cystic fibrosis cultures; also recorded: induces the formation of additional multiciliated cells in mature CF cultures”; in data set [4] (listed as DAFT) it was “induces the formation of additional multiciliated cells in mature cystic fibrosis cultures”. Moreover, the “structure of multiciliated cells / cilia” value in data set [5] is “indistinguishable from those in untreated healthy cultures”.
